What was measured:
C. ljungdahlii Hbd2 = molecular target: T1, C. ljungdahlii Hbd2 (Clostridium ljungdahlii, UniProt D8GTU3); assay: NAD(P)H oxidation at […] nm, E. coli cell-free extract; format: biochemical; conditions: 75 uM NADH, 125 uM acetoacetyl-CoA; 100 mM potassium phosphate pH 6.5, 25 mM potassium citrate; vector-extract activity subtracted
T1 construct: gene mmgB_1; full-length gene expressed in E. coli, cell-free extract (bead-beating), not purified; EC 1.1.1.57 printed
T1 sequence (D8GTU3 1-313): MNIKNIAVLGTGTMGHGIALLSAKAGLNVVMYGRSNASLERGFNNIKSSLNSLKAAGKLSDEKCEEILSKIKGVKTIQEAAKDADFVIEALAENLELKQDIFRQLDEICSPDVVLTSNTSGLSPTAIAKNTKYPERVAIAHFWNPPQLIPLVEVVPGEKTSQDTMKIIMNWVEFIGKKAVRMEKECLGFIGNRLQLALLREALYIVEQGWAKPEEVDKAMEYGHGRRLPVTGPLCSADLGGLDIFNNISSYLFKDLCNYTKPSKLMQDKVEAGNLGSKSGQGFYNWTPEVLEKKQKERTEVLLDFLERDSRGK

C. kluyveri Hbd1 = molecular target: T2, C. kluyveri Hbd1 (Clostridium kluyveri, UniProt A5N5D1); assay: as above; format: biochemical; conditions: 75 uM NADPH, 125 uM acetoacetyl-CoA; 100 mM potassium phosphate pH 6.5, 25 mM potassium citrate
T2 construct: full-length gene expressed in E. coli, cell-free extract (bead-beating), not purified
T2 sequence (A5N5D1 1-282): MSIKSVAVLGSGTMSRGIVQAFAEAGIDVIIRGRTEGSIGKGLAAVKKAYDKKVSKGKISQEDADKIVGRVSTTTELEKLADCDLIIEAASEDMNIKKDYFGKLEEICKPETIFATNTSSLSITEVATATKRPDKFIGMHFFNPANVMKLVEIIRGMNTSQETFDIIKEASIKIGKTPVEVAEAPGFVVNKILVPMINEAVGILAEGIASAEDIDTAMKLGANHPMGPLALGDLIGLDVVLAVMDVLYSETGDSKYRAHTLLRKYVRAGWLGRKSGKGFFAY

Row | Structure (SMILES) | NAD(P)H oxidation at 340 nm, E. coli cell-free extract (C. ljungdahlii Hbd2) | NAD(P)H oxidation at 340 nm, E. coli cell-free extract (C. kluyveri Hbd1)
1 | NC(=O)C1=CN([C@@H]2O[C@H](COP(=O)(O)OP(=O)(O)OC[C@H]3O[C@@H](n4cnc5c(N)ncnc54)[C@H](O)[C@@H]3O)[C@@H](O)[C@H]2O)C=CC1 [NADH] | we confirmed NADH specificity and acetoacetyl-CoA-dependence | –
2 | NC(=O)C1=CN([C@@H]2O[C@H](COP(=O)(O)OP(=O)(O)OC[C@H]3O[C@@H](n4cnc5c(N)ncnc54)[C@H](OP(=O)(O)O)[C@@H]3O)[C@@H](O)[C@H]2O)C=CC1 [NADPH] | – | C. kluyveri hbd1 E. coli extracts were used as an NADPH-specific control
3 | CC(=O)CC(=O)SCCNC(=O)CCNC(=O)[C@H](O)C(C)(C)COP(=O)(O)OP(=O)(O)OC[C@H]1O[C@@H](n2cnc3c(N)ncnc32)[C@H](O)[C@@H]1OP(=O)(O)O [acetoacetyl-CoA] | we confirmed NADH specificity and acetoacetyl-CoA-dependence | Both hbd1 and hbd2 E. coli cell free extracts showed low activity without acetoacetyl-CoA
